US20260250251A1, “HETEROCYCLIC COMPOUNDS AS PI3Ka INHIBITORS” (Pikavation Therapeutics, Inc., priority 2022, published 2026)

Legend:
[1] = test system: SKBR3 (PIK3CA WT) cells, pSer473 AKT; experiment: pS473 AKT assay in SKBR3 cells; type: cell-based; conditions: Homo sapiens, SK-BR-3, treated 2 h, read-out: SKBR3_IC50
Method: (§1) SKBR3 (PIK3CA WT), MCF7 (PIK3CA E545K), and T47D (PIK3CA H1047R) cells were cultured using 10-cm petri dishes with recommended medium. One day before the assay, cells were seeded in 96-well plates. After overnight incubation, cells were treated with different concentrations of PI3Kα inhibitors for 2 h. Cells were then fixed using 4% paraformaldehyde at room temperature for 20 min. Cells were aspirated with 4% paraformaldehyde, and washed using 1× regular phosphate buffered saline 3 times, 5 min each. Any residual phosphate buffered saline was aspirated and cells were blocked using 10% goat serum containing 1% bovine serum albumin and 0.3% Triton X-100 at room temperature for 1 h. Without any additional washing, primary antibodies (rabbit anti-pSer473 AKT) were diluted using blocking buffer and added at a final volume of 50 microliter per well. Assay plates with primary antibodies were maintained overnight at 4° C. Cells were washed using 1× regular phosphate buffered saline 3 times, 5 min each. After the final wash, cells were incubated with horseradish peroxidase-conjugated secondary antibodies (goat Anti-rabbit IgG) and diluted using the same blocking buffer at room temperature for 1 h. Cells were then washed thoroughly using 1× regular phosphate buffered saline 3 times, 5 min each, and any residual phosphate buffered saline was aspirated. Super-Signal ELISA Pico Chemiluminescent Substrate was then added at a final volume of 100 microliter per well. Plates were read on a i3x Multi-Mode Microplate Reader and IC50 values calculated using GraphPad Prism software.
(§2) Results of the assay described above are presented in Table A. “++++” indicates an IC50 less than 1000 nM; “+++” indicates an IC50 greater than or equal to 1000 nM but less than 5000 nM; “++” indicates an IC50 greater than or equal to 5000 nM but less than 10000 nM; and “+” indicates an IC50 greater than or equal to 10000 nM.

[2] = test system: T47D (PIK3CA H1047R) cells, pSer473 AKT; experiment: pS473 AKT assay in T47D cells; type: cell-based; conditions: Homo sapiens, treated 2 h, read-out: T47D_IC50
Method: as §1, §2

Row | IC50 [1] [nM] | IC50 [2] [nM] | Compound
1 | 1000 to 5000 | < 1000 | Cn1nc(N)c2c(Oc3cc(F)ccc3Cl)c(NC(=O)c3cc(F)cc(C(F)(F)F)c3)cc(-c3ccc(C(N)=O)cc3)c21 [Example 27, N-(3-Amino-7-(4-carbamoylphenyl)-4-(2-chloro-5-fluorophenoxy)-1-methyl-1H-indazol-5-yl)-3-fluoro-5-(trifluoromethyl)benzamide]
2 | < 1000 | < 1000 | Cn1nc(N)c2c(Oc3cc(F)ccc3Cl)c(NC(=O)c3cc(F)cc(C(F)(F)F)c3)cc(-c3cnn(C4CCOC4)c3)c21 (stereo not shown) [Example 28, N-(3-Amino-4-(2-chloro-5-fluorophenoxy)-1-methyl-7-(1-(tetrahydrofuran-3-yl)-1H-pyrazol-4-yl)-1H-indazol-5-yl)-3-fluoro-5-(trifluoromethyl)benzamide]
3 | 1000 to 5000 | < 1000 | Cn1nc(N)c2c(Oc3cc(F)ccc3Cl)c(NC(=O)c3cc(F)cc(C(F)(F)F)c3)cc(-c3cncnc3)c21 [Example 29, N-(3-Amino-4-(2-chloro-5-fluorophenoxy)-1-methyl-7-(pyrimidin-5-yl)-1H-indazol-5-yl)-3-fluoro-5-(trifluoromethyl)benzamide]
4 | < 1000 | < 1000 | Cn1nncc1-c1cc(NC(=O)c2cc(F)cc(C(F)(F)F)c2)c(Oc2cc(F)ccc2Cl)c2c(N)nn(C)c12 [Example 30, N-(3-Amino-4-(2-chloro-5-fluorophenoxy)-1-methyl-7-(1-methyl-1H-1,2,3-triazol-5-yl)-1H-indazol-5-yl)-3-fluoro-5-(trifluoromethyl)benzamide]
5 | < 1000 | < 1000 | Cn1nc(N)c2c(Oc3cc(F)ccc3Cl)c(NC(=O)c3cc(F)cc(C(F)(F)F)c3)cc(CC#N)c21 [Example 31, N-(3-Amino-4-(2-chloro-5-fluorophenoxy)-7-(cyanomethyl)-1-methyl-1H-indazol-5-yl)-3-fluoro-5-(trifluoromethyl)benzamide]
6 | < 1000 | < 1000 | Nc1nn2c3c(cc(NC(=O)c4cc(F)cc(C(F)(F)F)c4)c(Oc4cc(F)ccc4Cl)c13)NC(=O)C2 [Example 32, N-(6-Amino-7-(2-chloro-5-fluorophenoxy)-2-oxo-2,3-dihydro-1H-pyrazolo[1,5,4-de]quinoxalin-8-yl)-3-fluoro-5-(trifluoromethyl)benzamide]
7 | 1000 to 5000 | < 1000 | NC(=O)Cn1nc(N)c2c(Oc3cc(F)ccc3Cl)c(NC(=O)c3cc(F)cc(C(F)(F)F)c3)cc(Br)c21 [Example 33, N-(3-Amino-1-(2-amino-2-oxoethyl)-7-bromo-4-(2-chloro-5-fluorophenoxy)-1H-indazol-5-yl)-3-fluoro-5-(trifluoromethyl)benzamide]
8 | 1000 to 5000 | < 1000 | N#CCCn1nc(N)c2c(Oc3cc(F)ccc3Cl)c(NC(=O)c3cc(F)cc(C(F)(F)F)c3)cc(Cl)c21 [Example 34, N-(3-Amino-7-chloro-4-(2-chloro-5-fluorophenoxy)-1-(2-cyanoethyl)-1H-indazol-5-yl)-3-fluoro-5-(trifluoromethyl)benzamide]
9 | 1000 to 5000 | < 1000 | Cn1nc(NC(=O)CN)c2c(Oc3cc(F)ccc3Cl)c(NC(=O)c3cc(F)cc(C(F)(F)F)c3)cc(Cl)c21 [Example 35, N-(3-(2-Aminoacetamido)-7-chloro-4-(2-chloro-5-fluorophenoxy)-1-methyl-1H-indazol-5-yl)-3-fluoro-5-(trifluoromethyl)benzamide]
10 | < 1000 | < 1000 | Nc1nn2c3c(cc(NC(=O)c4cc(F)cc(C(F)(F)F)c4)c(Oc4cc(F)ccc4Cl)c13)CNC(=O)C2 [Example 36, N-(2-Amino-3-(2-chloro-5-fluorophenoxy)-8-oxo-6,7,8,9-tetrahydro-[1,4]diazepino[6,7,1-hi]indazol-4-yl)-3-fluoro-5-(trifluoromethyl)benzamide]
11 | 1000 to 5000 | < 1000 | Cn1nc(N)c2c(Oc3cc(F)ccc3Cl)c(NC(=O)c3cc(F)cc(C(F)(F)F)c3)cc(C#Cc3ccccn3)c21 [Example 37, N-(3-Amino-4-(2-chloro-5-fluorophenoxy)-1-methyl-7-(pyridin-2-ylethynyl)-1H-indazol-5-yl)-3-fluoro-5-(trifluoromethyl)benzamide]
12 | 1000 to 5000 | < 1000 | Cn1nc(N)c2c(Oc3cc(F)ccc3Cl)c(NC(=O)c3cc(F)cc(C(F)(F)F)c3)cc(C#CC3CCOCC3)c21 [Example 38, N-(3-Amino-4-(2-chloro-5-fluorophenoxy)-1-methyl-7-((tetrahydro-2H-pyran-4-yl)ethynyl)-1H-indazol-5-yl)-3-fluoro-5-(trifluoromethyl)benzamide]
13 | 1000 to 5000 | < 1000 | Cn1nc(N)c2c(Oc3cc(F)ccc3Cl)c(NC(=O)c3cc(F)cc(C(F)(F)F)c3)cc(C#CC(C)(C)O)c21 [Example 39, N-(3-Amino-4-(2-chloro-5-fluorophenoxy)-7-(3-hydroxy-3-methylbut-1-yn-1-yl)-1-methyl-1H-indazol-5-yl)-3-fluoro-5-(trifluoromethyl)benzamide]
14 | < 1000 | < 1000 | Cn1nc(N)c2c(Oc3cc(F)ccc3Cl)c(NC(=O)c3cc(F)cc(C(F)(F)F)c3)cc(C#CC(C)(C)N)c21 [Example 40, N-(3-Amino-7-(3-amino-3-methylbut-1-yn-1-yl)-4-(2-chloro-5-fluorophenoxy)-1-methyl-1H-indazol-5-yl)-3-fluoro-5-(trifluoromethyl)benzamide]
15 | 1000 to 5000 | < 1000 | Cn1nc(N)c2c(Oc3cc(F)ccc3Cl)c(NC(=O)c3cc(F)cc(C(F)(F)F)c3)cc(C#CC3CCOC3)c21 (stereo not shown) [Example 41, N-(3-Amino-4-(2-chloro-5-fluorophenoxy)-1-methyl-7-((tetrahydrofuran-3-yl)ethynyl)-1H-indazol-5-yl)-3-fluoro-5-(trifluoromethyl)benzamide]
16 | 1000 to 5000 | < 1000 | Cn1nc(N)c2c(Oc3cc(F)ccc3Cl)c(NC(=O)c3cc(F)cc(C(F)(F)F)c3)cc(C#CC3CC3)c21 [Example 42, N-(3-Amino-4-(2-chloro-5-fluorophenoxy)-7-(cyclopropylethynyl)-1-methyl-1H-indazol-5-yl)-3-fluoro-5-(trifluoromethyl)benzamide]
17 | < 1000 | < 1000 | Cn1nc(N)c2c(Oc3cc(F)ccc3Cl)c(NC(=O)c3cc(F)cc(C(F)(F)F)c3)cc(C#CC3(O)CC3)c21 [Example 43, N-(3-Amino-4-(2-chloro-5-fluorophenoxy)-7-((1-hydroxycyclopropyl)ethynyl)-1-methyl-1H-indazol-5-yl)-3-fluoro-5-(trifluoromethyl)benzamide]
18 | < 1000 | < 1000 | Cn1nc(N)c2c(Oc3cc(F)ccc3Cl)c(NC(=O)c3cc(F)cc(C(F)(F)F)c3)cc(C#CC3(CO)CC3)c21 [Example 44, N-(3-Amino-4-(2-chloro-5-fluorophenoxy)-7-((1-(hydroxymethyl)cyclopropyl)ethynyl)-1-methyl-1H-indazol-5-yl)-3-fluoro-5-(trifluoromethyl)benzamide]
19 | < 1000 | < 1000 | Cn1nc(N)c2c(Oc3cc(F)ccc3Cl)c(NC(=O)c3cc(F)cc(C(F)(F)F)c3)cc(C#CC3(N)CC3)c21 [Example 45, N-(3-Amino-7-((1-aminocyclopropyl)ethynyl)-4-(2-chloro-5-fluorophenoxy)-1-methyl-1H-indazol-5-yl)-3-fluoro-5-(trifluoromethyl)benzamide]
20 | 1000 to 5000 | < 1000 | Cn1nc(N)c2c(Oc3cc(F)ccc3Cl)c(NC(=O)c3cc(F)cc(C(F)(F)F)c3)cc(C#CC3(C)COC3)c21 [Example 46, N-(3-Amino-4-(2-chloro-5-fluorophenoxy)-1-methyl-7-((3-methyloxetan-3-yl)ethynyl)-1H-indazol-5-yl)-3-fluoro-5-(trifluoromethyl)benzamide]
21 | 1000 to 5000 | < 1000 | C#Cc1cc(NC(=O)c2cc(F)cc(C(F)(F)F)c2)c(Oc2cc(F)ccc2Cl)c2c(N)nn(C)c12 [Example 47, N-(3-Amino-4-(2-chloro-5-fluorophenoxy)-7-ethynyl-1-methyl-1H-indazol-5-yl)-3-fluoro-5-(trifluoromethyl)benzamide]
22 | 1000 to 5000 | < 1000 | Cn1ccc(C#Cc2cc(NC(=O)c3cc(F)cc(C(F)(F)F)c3)c(Oc3cc(F)ccc3Cl)c3c(N)nn(C)c23)n1 [Example 48, N-(3-Amino-4-(2-chloro-5-fluorophenoxy)-1-methyl-7-((1-methyl-1H-pyrazol-3-yl)ethynyl)-1H-indazol-5-yl)-3-fluoro-5-(trifluoromethyl)benzamide]
23 | < 1000 | < 1000 | Cn1nc(N)c2c(Oc3cc(F)ccc3Cl)c(NC(=O)c3cc(F)cc(C(F)(F)F)c3)cc(C#CCO)c21 [Example 49, N-(3-Amino-4-(2-chloro-5-fluorophenoxy)-7-(3-hydroxyprop-1-yn-1-yl)-1-methyl-1H-indazol-5-yl)-3-fluoro-5-(trifluoromethyl)benzamide]
